Laboratory results reported in patent publication US20240158446A1, “CYCLIC COMPOUND HAVING SELECTIVE INHIBITORY ACTION ON KRAS OVER HRAS AND NRAS” (CHUGAI SEIYAKU KABUSHIKI KAISHA, priority 2021, published 2024).
Like-named read-outs stand apart in the source and are kept apart here. Where a SMILES comes first, the peptide text is derived from it. Bridges are numbered along the chain shown (N, C = ends). [ ]: non-standard residue; d: D form. The star is where a group is joined. hPhe(3-Cl-4-CF3) = N[C@@H](CCc1ccc(C(F)(F)F)c(Cl)c1)C(=O)O; NPrPhe(4-CF3) = CCCN[C@@H](Cc1ccc(C(F)(F)F)cc1)C(=O)O; NMeGly(cPent) = CN[C@H](C(=O)O)C1CCCC1; Gly(cPent) = N[C@H](C(=O)O)C1CCCC1; NMeD = CN[C@@H](CC(=O)O)C(=O)O; NMeL = CN[C@@H](CC(C)C)C(=O)O; Morpholide = C1CN(*)CCO1; Ac5c = NC1(C(=O)O)CCCC1; Aze = O=C(O)[C@@H]1CCN1; NEtG = CCNCC(=O)O; Sar = CNCC(=O)O

What was measured:
[1] = molecular target: GDP-bound KRAS wild-type protein (Homo sapiens, UniProt P01116); experiment: Binding to KRAS by surface plasmon resonance (SPR), Single Cycle Kinetics; conditions: GDP-bound KRAS wild-type protein, read-out: KRAS KD
Sequence of GDP-bound KRAS wild-type protein (P01116 whole entry): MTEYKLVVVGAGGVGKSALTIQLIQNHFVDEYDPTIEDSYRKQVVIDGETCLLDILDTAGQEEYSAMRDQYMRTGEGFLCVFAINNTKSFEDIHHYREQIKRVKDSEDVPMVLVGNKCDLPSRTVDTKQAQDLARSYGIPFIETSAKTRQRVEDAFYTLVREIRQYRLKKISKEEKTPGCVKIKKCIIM

[2] = molecular target: GDP-bound NRAS wild-type protein (Homo sapiens, UniProt P01111); experiment: Binding to NRAS by surface plasmon resonance (SPR), Single Cycle Kinetics; conditions: for NRAS/KRAS (ratio of KD value for NRAS to KD value for KRAS): SPR, GDP-bound NRAS wild-type protein vs GDP-bound KRAS wild-type protein; for NRAS/KRAS (ratio of KD value with respect to GDP-bound NRAS wild-type protein to KD value with respect to KRAS): SPR KD ratio NRAS/KRAS, class symbols
Sequence of GDP-bound NRAS wild-type protein (P01111 whole entry): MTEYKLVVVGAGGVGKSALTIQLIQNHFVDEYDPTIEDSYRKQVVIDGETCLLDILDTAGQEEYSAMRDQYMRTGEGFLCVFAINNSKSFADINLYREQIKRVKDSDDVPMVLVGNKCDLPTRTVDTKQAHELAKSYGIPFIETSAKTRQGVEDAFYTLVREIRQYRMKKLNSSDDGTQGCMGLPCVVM

[3] = molecular target: GDP-bound HRAS wild-type protein (Homo sapiens, UniProt P01112); experiment: Binding to HRAS by surface plasmon resonance (SPR), Single Cycle Kinetics; conditions: for HRAS/KRAS (ratio of KD value for HRAS to KD value for KRAS): SPR, GDP-bound HRAS wild-type protein vs GDP-bound KRAS wild-type protein; for HRAS/KRAS (ratio of KD value with respect to GDP-bound HRAS wild-type protein to KD value with respect to KRAS): SPR KD ratio HRAS/KRAS, class symbols
Sequence of GDP-bound HRAS wild-type protein (P01112 whole entry): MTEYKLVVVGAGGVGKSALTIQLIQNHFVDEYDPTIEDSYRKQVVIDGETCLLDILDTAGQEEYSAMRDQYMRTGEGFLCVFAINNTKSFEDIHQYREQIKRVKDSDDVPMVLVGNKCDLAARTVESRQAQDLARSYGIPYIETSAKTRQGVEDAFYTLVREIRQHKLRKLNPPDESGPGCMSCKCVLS

[4] = SPR Single Cycle Kinetics, 1:1 binding model

Kd [1, 4] [nM] | Kd ([1]; SPR, Single Cycle Kinetics) [nM] | SMILES | NRAS/KRAS (ratio of KD value for NRAS to KD value for KRAS) [2] | HRAS/KRAS (ratio of KD value for HRAS to KD value for KRAS) [3] | NRAS/KRAS (ratio of KD value with respect to GDP-bound NRAS wild-type protein to KD value with respect to KRAS) [2] | HRAS/KRAS (ratio of KD value with respect to GDP-bound HRAS wild-type protein to KD value with respect to KRAS) [3]
0.84 |  | CCCN1C(=O)CN(C)C(=O)CN(CC)C(=O)[C@H](C2CCCC2)NC(=O)[C@H](CC(C)C)N(C)C(=O)C[C@@H](C(=O)N2CCOCC2)N(C)C(=O)[C@H](C2CCCC2)N(C)C(=O)C2(CCCC2)NC(=O)[C@@H]2CCCN2C(=O)[C@H](CCc2ccc(C(F)(F)F)c(Cl)c2)NC(=O)CN(C)C(=O)[C@@H]1Cc1ccc(C(F)(F)F)cc1 [PP0293] ([NMeL][Gly(cPent)][NEtG][Sar][NPrPhe(4-CF3)][Sar][hPhe(3-Cl-4-CF3)]P[Ac5c][NMeGly(cPent)][NMeD]-Morpholide; lactam N-11) | B (a compound having 3 or more and less than 10 is denoted as B) | C (A compound having a KD ratio of 0.1 or more and less than 3 is denoted as C) |  | 
1 |  | CCC[C@H]1C(=O)N[C@@H]([C@@H](C)CC)C(=O)N(C)CC(=O)N(C)[C@H]2C/C=C\CCN(C2=O)[C@@H](Cc2ccc(C(F)(F)F)cc2)C(=O)N(C)CC(=O)N[C@@H](CCc2ccc(Cl)c(OC)c2)C(=O)N2C[C@H](OCC)C[C@H]2C(=O)NC2(CC(C)(C)C2)C(=O)N(C)[C@@H](C(CC)CC)C(=O)N(C)[C@H](C(=O)N(C)C)CC(=O)N1C [PP2789] |  |  | AA (a compound having 20 or more is denoted as AA) | A (a compound having 10 or more and less than 20 is denoted as A)
0.052 |  | CCC[C@H]1C(=O)N[C@@H]([C@@H](C)CC)C(=O)N(C)CC(=O)N(C)[C@H]2C/C=C\CCN(C2=O)[C@@H](Cc2ccc(C(F)(F)F)cc2)C(=O)N(C)CC(=O)N[C@@H](CCc2cc(Cl)c3sccc3c2)C(=O)N2C[C@H](OCC)C[C@H]2C(=O)NC2(CC(C)(C)C2)C(=O)N(C)[C@@H](C2CCCC2)C(=O)N(C)[C@H](C(=O)N(C)C)CC(=O)N1C [PP2946] |  |  | A (a compound having 10 or more and less than 20 is denoted as A) | A (a compound having 10 or more and less than 20 is denoted as A)
 | 0.52 | CCO[C@@H]1C[C@H]2C(=O)NC3(CCC3)C(=O)N(C)[C@@H](C3CCCC3)C(=O)N(C)[C@H](C(=O)N(C)C)CC(=O)N(C)[C@@H](CC)C(=O)N[C@@H]([C@@H](C)CC)C(=O)N3CC[C@H]3C(=O)N(C)[C@H]3CC(C)=CCN(C3=O)[C@@H](Cc3ccc(C(F)(F)F)cc3)C(=O)N(C)CC(=O)N[C@@H](CCc3cc(F)c(C(F)(F)F)c(F)c3)C(=O)N2C1 [PP1035] | C (A compound having a KD ratio of 0.1 or more and less than 3 is denoted as C) | C (A compound having a KD ratio of 0.1 or more and less than 3 is denoted as C) |  | 
0.73 |  | CCCN1C(=O)[C@@H]2CCN2C(=O)CN(C)C(=O)[C@H]([C@@H](C)CC)NC(=O)[C@H](CC(C)C)N(C)C(=O)C[C@@H](C(=O)N2CCOCC2)NC(=O)[C@H](C2CCCC2)N(C)C(=O)C2(CCCC2)NC(=O)[C@@H]2CCCN2C(=O)[C@H](CCc2ccc(C(F)(F)F)c(Cl)c2)NC(=O)CN(C)C(=O)[C@@H]1Cc1ccc(C(F)(F)F)cc1 [PP0349] ([NMeL]I[Sar][Aze][NPrPhe(4-CF3)][Sar][hPhe(3-Cl-4-CF3)]P[Ac5c][NMeGly(cPent)]D-Morpholide; lactam N-11) | C (A compound having a KD ratio of 0.1 or more and less than 3 is denoted as C) | B (a compound having 3 or more and less than 10 is denoted as B) |  | 
 | 0.12 | CCC[C@H]1C(=O)N[C@@H]([C@@H](C)CC)C(=O)N(C)CC(=O)N(C)[C@H]2C/C=C\CCN(C2=O)[C@@H](Cc2ccc(C)cc2)C(=O)N(C)CC(=O)N[C@@H](CCc2cc(F)c(C(F)(F)F)c(F)c2)C(=O)N2CC3(CC3)C[C@H]2C(=O)NC2(CC(C)(C)C2)C(=O)N(C)[C@@H](CC(C)(C)C)C(=O)N(C)[C@H](C(=O)N(C)C)CC(=O)N1C [PP2997] | A (a compound having 10 or more and less than 20 is denoted as A) | B (a compound having 3 or more and less than 10 is denoted as B) |  | 
